In patent US10323017B2, “Antioxidants and methods to maximize performance” (University of Ottawa, priority 2015, dated 2019):

What was measured:
[1] = Hexadecane autoxidation at 160° C. (hydroperoxide formation), stirred flow reactor, initiated by tetralin hydroperoxide; conditions: for effect of added palmitic acid on inhibitory activity: 1 mM palmitic acid; for effect of added base 2,4,6-tri-tert-butylpyridine on inhibition of autoxidation: TTBP 1 mM vs. no base
Experimental: To evaluate the effect of an added sacrificial base on the high-temperature radical-trapping activity of antioxidants, autoxidations of n-hexadecane were carried out at 160° C. in a stirred flow reactor in the absence of or presence of a base, where a constant positive pressure of O2 was used to stir the medium and prevent mass transfer from becoming rate limiting (Igarashi, J., et al., J. Am. Chem. Soc. 1992, 114, 7727; Jensen, R.; et al., J. Am. Chem. Soc. 1979, 101, 7574). Tetralin hydroperoxide (10 mM) was used as a radical initiator since inhibited autoxidations in the absence of an initiator were very slow. At regular intervals, aliquots of the reaction mixture were removed, cooled and the concentration of hydroperoxide products determined by reaction with a developed fluorogenic phosphine (Hanthorn, J. J., et al., Chem. Commun. 2012, 48, 10141). Autoxidations were followed for the first 2% of the reaction, based on hydroperoxide formation, since beyond ca. 3% conversion, the hydroperoxide yield begins to decrease and highly complex mixtures of ketones, alcohols, carboxylic acids and esters arise.
n-Hexadecane (100 mL) was thoroughly degassed with argon and heated to 160° C. while argon was continuously bubbled through the liquid. […] For those experiment where acid or base was present, as noted in the figure captions, they were also added at this point. Aliquots (0.5 mL) were removed every 5 minutes, and allowed to cool to room temperature for analysis. Four duplicates (30 μL) of each sample were loaded into separate wells of a 96-well microplate and the automated reagent dispenser of the microplate reader was used to dilute each sample with tert-amyl alcohol (200 μL) and a solution of fluorogenic phosphine dye solution (20 μL of a 250 μM stock solution in acetonitrile) immediately before reading. The plate was stirred for 8 seconds, allowed to rest for 2 more seconds, and the fluorescence of each well was measured every second for 60 seconds (absorption at 340; emission at 425). The concentration of hydroperoxide was determined from the rate of phosphine oxidation using the rate constant for the reaction of the dye with secondary hydroperoxides in tert-amyl alcohol (k=1.2 M^−1s^−1) assuming pseudo-first-order kinetics. See sample data from an uninhibited autoxidation and one inhibited with diarylamine 4 alongside analogous experiments in the absence of the initiator tetralin hydroperoxide, or O2 (FIGS. 2C-E). Further results are presented in FIGS. 7 to 17 for hexadecane autoxidations and FIGS. 18 and 19 for tetralin autooxidations in the presence and absence of antioxidants, and at varying pH. FIGS. 14-17 correspond to hexadecane autoxidations carried out for diarylamine 4 in the presence of four different bases. FIGS. 7-13 correspond to hexadecane autoxidations carried out for compounds 1-7 and 20 in the presence and absence of a base, specifically, 2,4,6-tri-tert-butylpyridine. FIG. 5A corresponds to hexadecane autoxidations carried out for diarylamine 4 and 7 in the presence and absence of palmitic acid.

[2] = pKa measurement by titration of hydrochloride salts with NaOH; assay type: physicochemical; conditions: 4:1 (v:v) CH3CN:H2O solution of the hydrochloride salt; in 4:1 CH3CN:H2O; read-out: pKa of the conjugate acid
Experimental: Solutions of the hydrochloride salts of diarylamines 1-7 (1 mM) were made up in 4:1 CH3CN:H2O (3.0 mL) and the pH was measured using an Accument Electrode microbe referenced to Ag/Ag^+ as a function of added volumes of NaOH (10 mM). […] The titration curves for the diarylamines are shown in FIGS. 6A and 6B (averages of triplicate experiments), and the pKas reported in the manuscript correspond to the pH when 0.5 molar equivalents of NaOH were added to the solution.

[3] = Tetralin autoxidation at 70° C. initiated by azobis(α-tetralin); conditions: hexanoic acid 50 μM, antioxidant 2 μM
Experimental: Fresh tetralin was prepared by passing it through a column of silica. Tetralin (1.0 mL) was added to a glass vial, followed by chlorobenzene (1.0 mL). A magnetic Teflon-coated stir bar was added, and the vial was capped with a rubber septum. The vial was then placed in a heating block at 70° C. for 5 minutes. Antioxidant (4, 7) (0.002 mmol) were added. For those experiment where acid was present, as noted in the figure captions, hexanoic acid (0.050 mmol) was also added at this point. Azobis(α-tetralin) (0.1 mmol) was added as the initiator. The solution was stirred for 30 s and the first sample was taken. 100 μL samples were taken at regular intervals and added to 900 μL of a solution containing 2.2 mM benzyl alcohol, 10 mM butylated-hydroxytoluene, and 10 mM triphenylphosphine in 2% isopropanol/hexanes (HPLC grade). Samples were analysed using a Waters 2695 Alliance HPLC (2.0% iPrOH/hexanes, 1.6 ml min^−1; 10 min; Sunfire Silica column (5 μm, 4.6×250 mm)) and analysed by UV absorbance.

[4] = Diarylamine stability to oxygen at 160° C. in n-hexadecane; assay type: physicochemical
Experimental: n-Hexadecane (100 mL) was thoroughly degassed with argon and then heated to 160° C. while argon was continuously bubbled through the liquid. Once the temperature stabilized, 2.5 mmol of diarylamines 1-7 were added to the solution and the flow of argon was replaced with 02. Aliquots (100 μL) were removed every 10 minutes, and added to 900 μL of a 2.2 mM solution of benzyl alcohol (internal standard) in 2% isopropanol/hexanes (HPLC grade). Samples were analysed using a Waters 2695 Alliance HPLC at a flow rate of 2.1 mL min^−1 (8.0% PrOH/hexanes) on a Sunfire Silica column (5 μm, 4.6×250 mm) and determined by their UV absorbance.

[5] = Peroxyl radical clock kinetics; conditions: double reciprocal plot
Experimental: Peroxyl radical clocking experiments (to determine the inhibition rate constant kinh) for compound 5 were carried out according to our previously published reports (see Hanthorn, J., et al. J. Org. Chem. 2012, 77, 6895). Inhibition rate constants of the other compounds are as reported previously. A double reciprocal plot was used to obtain km=2.4×10^7 M^−1s^−1 for compound 5.

[6] = Cyclic voltammetry (standard potential); assay type: physicochemical; conditions: 1 mM in CH3CN containing 0.1 M Bu4NPF6
Experimental: A standard potential for diarylamine 5 was measured from its cyclic voltammagram obtained using a BASi potentiostat (available from BASi Analytical Instruments, West La Fayette, Ind., USA) with a glassy carbon working electrode, a platinum counter electrode and a Ag/AgNO3 reference electrode. The diarylamine was dissolved in degassed acetonitrile containing 0.1 M tetrabutylammonium hexafluorophosphate as supporting electrolyte and the current recorded in the range of 0-1 V at a scan rate of 200 mV/s. Standard potentials of the other compounds are reported in previous publications. A cyclic voltammogram of diarylamine 5 (1 mM in CH3CN containing 0.1 M Bu4NPF6) vs. Ag/Ag^+ gave E^0=0.84 V vs. NHE.

[7] = TTBP 1 mM, 40 μM antioxidant, 160° C.

SMILES: c1ccc(Nc2ccccc2)cc1 [Compound 7, reference compound]
- effect of added palmitic acid on inhibitory activity ([1]; 40 μM antioxidant, 160° C.): unchanged
- effect of added base 2,4,6-tri-tert-butylpyridine on inhibition of autoxidation ([1]; 40 μM antioxidant, 160° C.): no effect
- effect of added base 2,4,6-tri-tert-butylpyridine on inhibition of autoxidation ([1]; 40 μM antioxidant, 160° C., listed as diphenylamine): did not impact the reactivity
- pKa [2]: 4.6 ± 0.3
- effect of added acid on antioxidant activity [3]: does not affect the activity

SMILES: CCCCCCCCN(CCCCCCCC)c1ncc(Nc2ccc(C(C)(C)C)cc2)cn1 [Compound 20, N^5-(4-(tert-butyl)phenyl)-N^2,N^2-dioctylpyrimidine-2,5-diamine]
- stability and reactivity compared with compound 4 ([1]; 40 μM, with and without TTBP 1 mM, 160° C. (FIG. 9)): slightly increased stability and reactivity

SMILES: CCCCCCN(CCCCCC)c1ccc(Nc2ccccc2)cn1 [Compound 3, N^2,N^2-Dihexyl-N^5-phenylpyridine-2,5-diamine]
- inhibition of autoxidation in the presence of added base, compared with 7 [1, 7]: superior to 7
- pKa [2]: 8.4 ± 0.1
- stability to O2 [4]: relatively unstable

SMILES: CCCCN(CCCC)c1ncc(Nc2cnc(N(CCCC)CCCC)nc2)cn1 [Compound 2, N^2,N^2-Dibutyl-N^5-(2-(dibutylamino)pyrimidin-5-yl)pyrimidine-2,5-diamine]
- inhibition of autoxidation in the presence of added base, compared with 7 [1, 7]: particularly good
- pKa [2]: 8.8 ± 0.1

SMILES: CCCCCCc1ncc(Nc2cnc(N(CCCC)CCCC)nc2)cn1 [Compound 5, N^2,N^2-Dibutyl-N^5-(2-hexylpyrimidin-5-yl)pyrimidine-2,5-diamine]
- inhibition of autoxidation in the presence of added base, compared with 7 [1, 7]: particularly good
- pKa [2]: 8.3 ± 0.1
- inhibition rate constant kinh (printed km) [5]: 2.4e+07 M⁻¹ s⁻¹
- standard potential E^0 [6]: 0.84 V vs. NHE

SMILES: CCCCCCN(CCCCCC)c1ncc(Nc2ccccc2)cn1 [Compound 4, N^2,N^2-Dihexyl-N^5-phenylpyrimidine-2,5-diamine]
- difference in Δt2% (delay to reach [ROOH]=2%) relative to 7 ([1]; 40 μM antioxidant, TTBP 1 mM, 160° C.): 12.5 fold
- effect of added palmitic acid on inhibitory activity ([1]; 40 μM antioxidant, 160° C.): disrupt the inhibitory activity
- effect of added base 2,4,6-tri-tert-butylpyridine on inhibition of autoxidation ([1]; 40 μM antioxidant, 160° C.): unprecedented inhibited period
- inhibition of autoxidation in the presence of added base, compared with 7 [1, 7]: particularly good
- effect of other bases on activity ([1]; cesium carbonate, potassium carbonate, or Primene 81-R (1 mM), 160° C.): rescued
- pKa [2]: 8.2 ± 0.2
